Where “and” joins values, the source holds several entries; their conditions need not be identical. Equal values may be shown once.

The source of these data is patent US11007183B2, “Cancer treatments using combinations of PI3K/Akt pathway and ERK inhibitors” (BIOMED VALLEY DISCOVERIES, INC., priority 2013, dated 2021).

The subject of one data set is HCT116 PIK3CA (+/−). The experiment in a line: Single agent proliferation assay (CellTiter-Glo, 72 h). It is filed as cell-based, human. How it is done:
Cells were seeded in 96-well plates at the densities and media conditions indicated in Table 11 in McCoy's 5A containing either 10% FBS or 1% charcoal-stripped FBS (CS-FBS), and allowed to adhere overnight prior to addition of compound or vehicle control. […] The final DMSO concentration was constant at 0.1%. Test compounds were incubated with the cells for 72 h at 37° C., 5% CO2 in a humidified atmosphere. CellTiter-Glo® reagent (Promega, Madison, Wis.) was added according to manufacturer's instructions and luminescence detected using the BMG FLUOstar plate reader (BMG Labtech, Ortenberg, Germany). The average media only background value was deducted and the data analysed using a 4-parameter logistic equation in GraphPad Prism (GraphPad Software, La Jolla, Calif.).
For orientation: ATP-based viability assays read luminescence as a measure of living cells.

For the next data set, the system named is HCT116 Parental. Described as above. It counts as cell-based, human. How it is done: Cells were seeded in 96-well plates at the densities and media conditions indicated in Table 11 in McCoy's 5A containing either 10% FBS or 1% charcoal-stripped FBS (CS-FBS), and allowed to adhere overnight prior to addition of compound or vehicle control. Compounds were prepared from DMSO stocks to give the desired final concentrations. The final DMSO concentration was constant at 0.1%. Test compounds were incubated with the cells for 72 h at 37° C., 5% CO2 in a humidified atmosphere. CellTiter-Glo® reagent (Promega, Madison, Wis.) was added according to manufacturer's instructions and luminescence detected using the BMG FLUOstar plate reader (BMG Labtech, Ortenberg, Germany). The average media only background value was deducted and the data analysed using a 4-parameter logistic equation in GraphPad Prism (GraphPad Software, La Jolla, Calif.).

Data set [1] can be described thus: Toxicity (body weight, deaths, clinical signs) in the HCT116 xenograft study. It counts as in vivo, mice. Particulars: Group 10: Paclitaxel 30 mg/kg iv qod x 5. As to the method: Animals were weighed daily on Days 1-5, then twice per week until completion of the study. The mice were observed frequently for overt signs of any adverse, TR side effects, and clinical signs were recorded when observed. Individual BW loss was monitored as per protocol, and any animal whose weight exceeded the limits for acceptable BW loss was euthanized. Group mean BW loss also was monitored as per protocol. Dosing was to be suspended in any group that exceeded the limits for acceptable mean BW loss. If mean BW recovered, then dosing was to be resumed in that group, but at a lower dosage or less frequent dosing schedule. Acceptable toxicity for the maximum tolerated dose (MTD) was defined as a group mean BW loss of less than 20% during the study and not more than 10% TR deaths. A death was classified as TR if attributable to treatment side effects as evidenced by clinical signs and/or necropsy, or may also be classified as TR if due to unknown causes during the dosing period or within 14 days of the last dose. A death was classified as NTR if there was no evidence that death was related to treatment side effects. NTR deaths may be further characterized based on cause of death. A death was classified as NTRa if it resulted from an accident or human error. […] A death was classified as NTRu if the cause of death was unknown and there was no available evidence of death related to treatment side effects, metastasis, accident or human error, although death due to treatment side effects cannot be excluded.

Data set [2] deals with HCT116 human colorectal carcinoma xenograft. The data set can be described thus: HCT116 xenograft tumor growth delay (TGD) study. It counts as in vivo, mice. How it is done: Female athymic nude mice (Crl:NU(Ncr)-Foxn1^nu, Charles River) were eight weeks old with a body weight (BW) range of 14.6 to 25.7 grams on Day 1 of the study. The animals were fed ad libitum water (reverse osmosis, 1 ppm Cl), and NIH 31 Modified and Irradiated Lab Diet® consisting of 18.0% crude protein, 5.0% crude fat, and 5.0% crude fiber. The mice were housed on irradiated Enrich-O'Cobs™ Laboratory Animal Bedding in static microisolators on a 12-hour light cycle at 20-22° C. (68-72° F.) and 40-60% humidity.
HCT116 human colon carcinoma cells were cultured in RPMI-1640 medium supplemented with 10% fetal bovine serum, 2 mM glutamine, 100 units/mL penicillin G sodium, 100 μg/mL streptomycin sulfate, and 25 μg/mL gentamicin. The tumor cells were grown in tissue culture flasks in a humidified incubator at 37° C., in an atmosphere of 5% CO2 and 95% air.
The HCT116 cells used for implantation were harvested during exponential growth and resuspended in 50% Matrigel (BD Biosciences): 50% phosphate buffered saline at a concentration of 2.5×10^7 cells/mL. On the day of tumor implant, each test mouse was injected subcutaneously in the right flank with 5×10^6 cells (0.2 mL cell suspension), and tumor growth was monitored as the average size approached the target range of 100 to 150 mm^3. Tumors were measured in two dimensions using calipers, and volume was calculated using the formula: Tumor Volume (mm^3)=(w^2×l)/2 where w=width and l=length, in mm, of the tumor. Tumor weight may be estimated with the assumption that 1 mg is equivalent to 1 mm^3 of tumor volume.
Ten days after tumor implantation, designated as Day 1 of the study, the animals were sorted into nine groups (Groups 1-9) each consisting of fifteen mice and one group (Group 10) consisting of ten mice.
BVD-523 doses were prepared by suspending the required amount of BVD-523 powder in 1% carboxymethyl cellulose (CMC) in deionized water (“Vehicle”). A 10 mg/mL BVD-523 stock was prepared, and was used to dose the 100 mg/kg BVD-523 group. Aliquots of the stock were diluted with the vehicle to a concentration of 5.0 mg/mL, which provided a 50 mg/kg BVD-523 dosage in a dosing volume of 10 mL/kg. The BVD-523 doses were stored at 4° C. for up to one week. The 1% CMC vehicle was used to dose the control group.
Paclitaxel (Lot CP2N10007) was purchased as a dry powder from Phyton Biotech, LLC (Fort Worth, Tex.). A paclitaxel stock solution (30 mg/mL) in 50% ethanol: 50% Cremophor EL was prepared and stored at room temperature protected from light during the dosing period. On each day of dosing, an aliquot of the paclitaxel stock was diluted with 5% dextrose in water (D5W) to yield a 3.0 mg/mL paclitaxel dosing solution in a vehicle consisting of 5% ethanol: 5% Cremophor EL: 90% D5W.
On Day 1 of the study, mice were sorted into nine groups (Group 1-9) each consisting of fifteen mice and one group (Group 10) consisting of ten mice, and dosing was initiated according to the treatment plan summarized in Table 4 below. All doses were given by oral gavage (p.o.) except paclitaxel, which was given i.v. For each agent, the dosing volume of 10 mL/kg (0.2 mL per 20 grams of BW) was scaled to the BW of the individual animal. […] For bid dosing, dosing was initiated in the afternoon of Day 1, so that one dose was given on the first day (“first day 1 dose”).
Group 1 received 1% CMC vehicle p.o. bid to end, and served as the control group for calculation of % TGD. Group 10 received paclitaxel i.v. at 30 mg/kg once every other day (qod) for five doses (qod×5), and served as the positive control for the model.
Groups 4 and 5 received 50 and 100 mg/kg BVD-523, respectively, p.o. bid to end.

Another data set relates to parental HCT116 cells. The experiment in a line: Combination proliferation assay (Loewe/Bliss). It is filed as cell-based. The following applies: Homo sapiens, HCT-116, 2.5% serum, mean of n=4 separate combinations, read-out: IC50 (single agent, derived from combination assay plates). How it is done:
Cells were seeded into triplicate 96-well plates at the densities indicated in Table 11 in McCoy's 5A media containing 2.5% FBS and allowed to adhere overnight prior to addition of test compound or vehicle control. Combinations were tested using either a 10×8 or for the follow-up HCT116 study a 3×1 dose matrix.
Test compounds were incubated with the cells for 72 h at 37° C., 5% CO2 in a humidified atmosphere. CellTiter-Glo® reagent (Promega, Madison, Wis.) was added according to manufacturer's instructions and luminescence detected using the BMG FLUOstar plate reader (BMG Labtech, Ortenberg, Germany). The average media only background value was deducted and the data analysed.
For the 10×8 combination assays the combination interactions across the dose matrix were determined by the Loewe Additivity and Bliss independence models using Chalice™ Combination Analysis Software (Horizon Discovery Group, Cambridge, Mass.) as outlined in the user manual (available at chalice.horizondiscovery.com/chalice-portal/documentation/analyzer/home.jsp). Synergy is determined by comparing the experimentally observed level of inhibition at each combination point with the value expected for additivity, which is derived from the single-agent responses along the edges of the matrix. […]

Data set [3] has as its system HCT116 PIK3CA (+/−) cells. The data set can be described thus: Combination proliferation assay (Loewe/Bliss). It counts as cell-based, human. The following applies: Homo sapiens, HCT-116, read-out: IC50 (single agent, derived from combination assay plates). As to the method: Test compounds were incubated with the cells for 72 h at 37° C., 5% CO2 in a humidified atmosphere. CellTiter-Glo® reagent (Promega, Madison, Wis.) was added according to manufacturer's instructions and luminescence detected using the BMG FLUOstar plate reader (BMG Labtech, Ortenberg, Germany). The average media only background value was deducted and the data analysed. For the 10×8 combination assays the combination interactions across the dose matrix were determined by the Loewe Additivity and Bliss independence models using ChaliceTM Combination Analysis Software (Horizon Discovery Group, Cambridge, Mass.) as outlined in the user manual (available at chalice.horizondiscovery.com/chalice-portal/documentation/analyzer/home.jsp). Synergy is determined by comparing the experimentally observed level of inhibition at each combination point with the value expected for additivity, which is derived from the single-agent responses along the edges of the matrix. Potential synergistic interactions were identified by displaying the calculated excess inhibition over that predicted as being additive across the dose matrix as a heat map, and by reporting a quantitative 'Synergy Score' based on the Loewe model. The single agent data derived from the combination assay plates were presented as dose-response curves generated in GraphPad Prism (GraphPad Software, La Jolla, Calif.) (plotted using percentage viability relative to DMSO only treated controls). […] (Cbliss is the fractional inhibition that would be expected if the combination of the two drugs were exactly additive). Cbliss values were then subtracted from the experimentally observed fractional inhibition values to give an 'excess over Bliss' value which were plotted as heat maps±SD.

Where [4] appears, read: Homo sapiens, HCT-116, 72 h, 1% CS-FBS.
Where [5] appears, read: Homo sapiens, HCT-116, 72 h, 10% FBS.
[6] abbreviates: Group 1 (vehicle) vs Group 10 (Paclitaxel 30 mg/kg iv qod x 5).
[7] abbreviates: Group 10: Paclitaxel 30 mg/kg iv qod x 5.

Take `Nc1cc(C(F)(F)F)c(-c2cc(N3CCOCC3)nc(N3CCOCC3)n2)cn1` [BKM120]: the IC50 (commonly the midpoint of a concentration-inhibition curve) was 1030 nM in the data set with HCT116 PIK3CA (+/−) (setting [4]), 520 nM with HCT116 PIK3CA (+/−) (setting [5]), 530 nM in the data set on HCT116 Parental (setting [4]) and 620 nM with HCT116 Parental (setting [5]).

For the molecule `CS(=O)(=O)N1CCN(Cc2cc3nc(-c4cccc5[nH]ncc45)nc(N4CCOCC4)c3s2)CC1` [GDC-0941, pictilisib], the results for the IC50 with HCT116 Parental (setting [4]) and in the data set on HCT116 Parental (setting [5]) were 60 nM and 1530 nM, respectively.

With `CC(C)n1nc(-c2ccc3oc(N)nc3c2)c2c(N)ncnc21` [INK128], the IC50 with HCT116 PIK3CA (+/−) (setting [4]) was 20 nM; in the data set on HCT116 PIK3CA (+/−) (setting [5]) it was 70 nM; in the data set on HCT116 Parental (setting [4]) it was 30 nM; in the data set with HCT116 Parental (setting [5]) it was 50 nM.

On to `COc1ccc(-c2cc3c(C)nc(N)nc3n([C@H]3CC[C@H](OCCO)CC3)c2=O)cn1` [PF-04691502], for which the IC50 is 1540 nM in the data set on HCT116 PIK3CA (+/−) (1% CS-FBS), 420 nM with HCT116 PIK3CA (+/−) (10% FBS), 70 nM in the data set with HCT116 Parental (1% CS-FBS) and 290 nM in the data set with HCT116 Parental (10% FBS).

`CC(=O)O[C@H]1C(=O)[C@@]2(C)[C@H]([C@H](OC(=O)c3ccccc3)[C@]3(O)C[C@H](OC(=O)[C@H](O)[C@@H](NC(=O)c4ccccc4)c4ccccc4)C(C)=C1C3(C)C)[C@]1(OC(C)=O)CO[C@@H]1C[C@@H]2O` [Paclitaxel, reference compound] gave an IC50 in the data set on HCT116 PIK3CA (+/−) (setting [4]) of 3 nM. This molecule gave an IC50 in the data set on HCT116 PIK3CA (+/−) (setting [5]) of 2 nM. Besides, the IC50 in the data set with HCT116 Parental (setting [4]) came to 3 nM. Also, in the data set on HCT116 Parental (setting [5]), the IC50 came to 2 nM. For the same molecule, in data set [1], the “Deaths NTR” value was 0 and the “Deaths TR” value was 0. Besides, in data set [2] (setting [6]), the “Are survival curves diff.?” value is “Yes” and the “Logrank test Chi square” value came out at 24.03. Besides, in data set [2] (setting [7]), the “% TGD” value came out at 38%, the “MTV (n): number of animals on D 45 (45-day survivors)” value is reported as “(10)”, the “MTV D 45 (median tumor volume)” value was determined as 688 mm^3 and the “Median TTE” value is given as 45.0 days. Moreover, in data set [2] (setting [7]), the “Regressions CR” value worked out at 0; the “Regressions PR” value is 8/10 and 8; the “Regressions TFS” value came out at 0; the “T − C” value is 12.3 days.

Turning to `O=C(Nc1ccc2[nH]nc(-c3ccncc3)c2c1)[C@@H]1CCN(CC(=O)N2CCN(c3ccc(-c4ncccn4)cc3)CC2)C1` [SCH772984], the IC50 turned out to be 10 nM in the data set on HCT116 PIK3CA (+/−) (setting [4]); 80 nM in the data set with HCT116 PIK3CA (+/−) (setting [5]); 30 nM in the data set on HCT116 Parental (setting [4]); 140 nM in the data set on HCT116 Parental (setting [5]); 210 nM in the data set with parental HCT116 cells; 30 nM in data set [3].
